Test results taken from patent US9801901B2, “Alginate oligomers for use in overcoming multidrug resistance in bacteria” (priority 2009, dated 2017).
Like-named read-outs stand apart in the source and are kept apart here. Marks after values point to notes of the source that are not given here.

How the values were obtained:
[1] = test system: Pseudomonas aeruginosa CFA 24-1, clinical mucoid strain (R80); assay: MIC assay, CAMHB with alginate oligomer, no visible growth; assay type: cell-based; conditions: Pseudomonas aeruginosa, Table 1, R80, read-out: MIC
[2] = test system: Pseudomonas aeruginosa MDR R22 from China (V1); assay: as above; assay type: cell-based; conditions: for MIC: Pseudomonas aeruginosa, Table 1, V1 MDR R22 PA, read-out: MIC
Excerpt: (§1) The study described in Example 1 was repeated with the following strains of bacteria and antibiotics as detailed in Tables 4, 5 and 6.

[3] = test system: Acinetobacter baumannii MDR ACB from Libya (V4); assay: as above; assay type: cell-based; conditions: for MIC: Table 1, V4 ACB (Libya)
Excerpt: as §1
The study described in Example 1 was repeated with the following strains of Acinetobacter baumannii, antibiotics and M-block alginate oligomer in place of OligoG CF-5/20 as detailed in Table 7. The M-block oligomer is 100% M with a DPn of 15 to 18,

[4] = test system: V9 (Egypt) Acinetobacter baumannii; assay: as above; assay type: cell-based; conditions: Table 5, V9 MDR Acin. baum
[5] = test system: V10 (Egypt) Acinetobacter lwoffii; assay: as above; assay type: cell-based; conditions: Table 5, V10 MDR Acin. lwoff
V11 5702 (Wales) E. coli = assay: as above; assay type: cell-based; conditions: Table 5, V11 MDR E.coli
[6] = test system: V23 1322 Burkholderia cepacia; assay: as above; assay type: cell-based
[7] = test system: strains of Klebsiella pneumoniae displaying MDR phenotypes; assay: MIC-assay, Mueller-Hinton broth with G-block alginate, 384-well, OD600 (Table 10); assay type: cell-based
Excerpt: Minimum inhibitory concentration (MICs) of different antibiotics for strains of Klebsiella pneumoniae displaying MDR phenotypes in the presence of varying concentrations of OligoCF-5/20 (0-10%). (MIC values are expressed in μg ml^−1).

MDR Providencia stuartii = assay: MIC-assay, Mueller-Hinton broth with G-block alginate, 384-well, OD600 (Table 11); assay type: cell-based; conditions: Providencia stuartii (IR57 India, V7) MDR
Excerpt: (§2) Minimum inhibitory concentration (MICs) of different antibiotics for strains of E. coli and Providencia stuartii displaying MDR phenotypes in the presence of varying concentrations of OligoCF-5/20 (0-10%). (MIC values are expressed in μg ml^−1).

[8] = test system: strains of E. coli displaying MDR phenotypes; assay: as above; assay type: cell-based; conditions: Escherichia coli, Escherichia coli (5702, Wales, V11) MDR, read-out: MIC
Excerpt: as §2

[9] = test system: Staphylococcus aureus (MRSA) U50; assay: MIC-assay, Mueller-Hinton broth with G-block alginate, 384-well, OD600 (Table 12); assay type: cell-based; conditions: MRSA 1040s, U50 MDR, read-out: MIC
Excerpt: (§3) Minimum inhibitory concentration (MICs) of different antibiotics for strains of Streptococcus oralis and Staphylococcus aureus (MRSA) displaying MDR phenotypes in the presence of varying concentrations of OligoCF-5/20 (0-10%). (MIC values are expressed in μg ml^−1).

Streptococcus oralis = assay: as above; assay type: cell-based; conditions: Streptococcus oralis (5610, V17) MDR, read-out: MIC
Excerpt: as §3

[10] = test system: Burkholderia cepacia (1322, V23); assay: MIC-assay, Mueller-Hinton broth with G-block alginate, 384-well, OD600
[11] = test system: Acinetobacter baumannii (MDR ACB, Libya, V4); assay: as above
[12] = Acinetobacter baumannii, OligoCF-5/20 0G, read-out: MIC

CC(C)(O/N=C(\C(=O)N[C@@H]1C(=O)N2C(C(=O)[O-])=C(C[n+]3ccccc3)CS[C@H]12)c1csc(N)n1)C(=O)O [Ceftazidime]
32 µg/mL: MIC ([2]; OligoCF-5/20 +6% G)
4^† μg/ml: MIC ([6]; Table 6, V23, Experiment 3 (19-03-10), OligoCF-5/20 +10% G)
16 µg/mL: MIC ([9]; G-block (OligoCF-5/20) 2%) | MIC ([10]; Table 8, G-block (OligoCF-5/20) 6%) | MIC ([10]; Table 8, G-block (OligoCF-5/20) 10%) | MIC ([11]; Table 9, G-block (OligoCF-5/20) 0%)
512^† μg/ml: MIC ([4]; OligoCF-5/20 +2% G) | MIC ([4]; OligoCF-5/20 +6% G)
1020 µg/mL: MIC ([7]; Klebsiella pneumoniae (IR25, India, V6) MDR, G-block (OligoCF-5/20) 2%) | MIC ([7]; Klebsiella pneumoniae (IR25, India, V6) MDR, G-block (OligoCF-5/20) 10%)
0.0312 µg/mL: MIC (Streptococcus oralis; G-block (OligoCF-5/20) 6%)
> 16 µg/mL: MIC ([7]; Klebsiella pneumoniae (5712, Wales, V12) MDR, G-block (OligoCF-5/20) 0%, read-out: MIC) | MIC ([7]; Klebsiella pneumoniae (5712, Wales, V12) MDR, G-block (OligoCF-5/20) 6%, read-out: MIC) | MIC ([7]; Klebsiella pneumoniae (5712, Wales, V12) MDR, G-block (OligoCF-5/20) 10%, read-out: MIC) | MIC ([8]; G-block (OligoCF-5/20) 0%) | MIC ([8]; G-block (OligoCF-5/20) 2%) | MIC ([8]; G-block (OligoCF-5/20) 6%) | MIC ([8]; G-block (OligoCF-5/20) 10%) | MIC ([9]; G-block (OligoCF-5/20) 0%) | MIC ([10]; Table 8, G-block (OligoCF-5/20) 0%) | MIC ([10]; Table 8, G-block (OligoCF-5/20) 2%)
16^† μg/ml: MIC ([6]; Table 6, V23, Experiment 1 (18-03-10), OligoCF-5/20 +6% G) | MIC ([6]; Table 6, V23, Experiment 3 (19-03-10), OligoCF-5/20 +6% G)
1 µg/mL: MIC (Streptococcus oralis; G-block (OligoCF-5/20) 10%)
64 µg/mL: MIC ([2]; OligoCF-5/20 +2% G) | MIC ([6]; Burkholderia cepacia, Table 5, V23 MDR Burk cep, OligoCF-5/20 0G, read-out: MIC) | MIC ([6]; Burkholderia cepacia, Table 6, V23, Experiment 2 (18-03-10), OligoCF-5/20 0G, read-out: MIC) | MIC ([6]; Burkholderia cepacia, Table 6, V23, Experiment 3 (19-03-10), OligoCF-5/20 0G, read-out: MIC) | MIC ([6]; Table 6, V23, Experiment 2 (18-03-10), OligoCF-5/20 +2% G)
64^† μg/ml: MIC (V11 5702 (Wales) E. coli; OligoCF-5/20 +2% G) | MIC (V11 5702 (Wales) E. coli; OligoCF-5/20 +10% G) | MIC ([6]; Table 6, V23, Experiment 1 (18-03-10), OligoCF-5/20 +2% G)
more positive effect: effect in combination with alginate oligomers ([3]; Example 1, Acinetobacter baumannii isolate)
<0.5^† μg/ml: MIC ([5]; OligoCF-5/20 +6% G) | MIC ([5]; OligoCF-5/20 +10% G) | MIC ([6]; Table 5, V23 MDR Burk cep, OligoCF-5/20 +10% G)
> 1020 µg/mL: MIC ([7]; Klebsiella pneumoniae (IR25, India, V6) MDR, G-block (OligoCF-5/20) 0%, read-out: MIC) | MIC ([7]; Klebsiella pneumoniae (IR25, India, V6) MDR, G-block (OligoCF-5/20) 6%, read-out: MIC) | MIC ([7]; Klebsiella pneumoniae (K3, India, V8) MDR, G-block (OligoCF-5/20) 0%, read-out: MIC) | MIC ([7]; Klebsiella pneumoniae (K3, India, V8) MDR, G-block (OligoCF-5/20) 2%, read-out: MIC) | MIC ([7]; Klebsiella pneumoniae (K3, India, V8) MDR, G-block (OligoCF-5/20) 6%, read-out: MIC) | MIC ([7]; Klebsiella pneumoniae (K3, India, V8) MDR, G-block (OligoCF-5/20) 10%, read-out: MIC) | MIC (MDR Providencia stuartii; G-block (OligoCF-5/20) 0%) | MIC (MDR Providencia stuartii; G-block (OligoCF-5/20) 2%) | MIC (MDR Providencia stuartii; G-block (OligoCF-5/20) 6%) | MIC (MDR Providencia stuartii; G-block (OligoCF-5/20) 10%)
< 1 µg/mL: MIC ([1]; OligoCF-5/20 0G) | MIC ([1]; OligoCF-5/20 +2% G) | MIC ([1]; OligoCF-5/20 +6% G) | MIC ([1]; OligoCF-5/20 +10% G)
> 512 µg/mL: MIC [4, 12]
2 µg/mL: MIC ([5]; Acinetobacter lwoffii, OligoCF-5/20 0G, read-out: MIC) | MIC ([5]; OligoCF-5/20 +2% G) | MIC ([9]; G-block (OligoCF-5/20) 10%)
128 µg/mL: MIC ([2]; OligoCF-5/20 0G) | MIC (V11 5702 (Wales) E. coli; Escherichia coli, OligoCF-5/20 0G, read-out: MIC) | MIC ([6]; Burkholderia cepacia, Table 6, V23, Experiment 1 (18-03-10), OligoCF-5/20 0G, read-out: MIC)
4 µg/mL: MIC (Streptococcus oralis; G-block (OligoCF-5/20) 2%)
8^† μg/ml: MIC ([6]; Table 6, V23, Experiment 1 (18-03-10), OligoCF-5/20 +10% G)
512 µg/mL: MIC [3, 12] | MIC ([3]; OligoCF-5/20 +6% G)
reduced: change of MIC in combination with azithromycin by alginate oligomer ([2]; Table 3, MDR R22 PA strain) | change of MIC in combination with azithromycin by alginate oligomer ([3]; Table 3, MDR Acinetobacter baumannii isolate)
256^† μg/ml: MIC ([4]; OligoCF-5/20 +10% G)
8 µg/mL: MIC ([2]; OligoCF-5/20 +10% G) | MIC ([6]; Table 5, V23 MDR Burk cep, OligoCF-5/20 +6% G) | MIC ([7]; Klebsiella pneumoniae (5712, Wales, V12) MDR, G-block (OligoCF-5/20) 2%, read-out: MIC) | MIC ([9]; G-block (OligoCF-5/20) 6%) | MIC (Streptococcus oralis; G-block (OligoCF-5/20) 0%) | MIC ([11]; Table 9, G-block (OligoCF-5/20) 2%) | MIC ([11]; Table 9, G-block (OligoCF-5/20) 6%) | MIC ([11]; Table 9, G-block (OligoCF-5/20) 10%)
32^† μg/ml: MIC (V11 5702 (Wales) E. coli; OligoCF-5/20 +6% G) | MIC ([6]; Table 5, V23 MDR Burk cep, OligoCF-5/20 +2% G) | MIC ([6]; Table 6, V23, Experiment 2 (18-03-10), OligoCF-5/20 +6% G) | MIC ([6]; Table 6, V23, Experiment 2 (18-03-10), OligoCF-5/20 +10% G) | MIC ([6]; Table 6, V23, Experiment 3 (19-03-10), OligoCF-5/20 +2% G)
256 µg/mL: MIC ([3]; Acinetobacter baumannii, OligoCF-5/20 +10% G, read-out: MIC)
